Usually IC50 stands for the concentration that gives 50% inhibition.

Consider 28 molecules from US11976057B2, “MrgX2 antagonists” (GlaxoSmithKline Intellectual Property Development Limited, priority 2020, dated 2024).

For this experiment, the target named is T1, human MRGPRX2 (Homo sapiens, UniProt Q96LB1).
T1 sequence (Q96LB1 1-330): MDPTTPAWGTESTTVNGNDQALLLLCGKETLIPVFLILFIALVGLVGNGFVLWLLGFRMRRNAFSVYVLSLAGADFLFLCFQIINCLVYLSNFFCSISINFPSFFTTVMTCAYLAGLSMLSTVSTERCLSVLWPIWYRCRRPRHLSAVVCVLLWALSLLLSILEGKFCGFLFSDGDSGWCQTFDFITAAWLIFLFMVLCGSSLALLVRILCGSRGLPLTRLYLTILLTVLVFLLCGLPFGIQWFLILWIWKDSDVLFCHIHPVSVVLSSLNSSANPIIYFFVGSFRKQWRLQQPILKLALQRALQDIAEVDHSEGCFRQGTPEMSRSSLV
In words: Ca2+ mobilization assay (FLIPR TETRA): inhibition of Cortistatin-14 mediated MRGPRX2 activation. On the technique in general: A change in cytosolic calcium serves as a functional read-out for many receptors and channels.
With `Cc1cc([C@@H]2CN([C@H](C)C(=O)Nc3ccc(Oc4ccc(F)cc4)cn3)CCC2(F)F)cc[n+]1[O-]` (racemic) [Example 218, 4-((R)-4,4-difluoro-1-((R)-1-((5-(4-fluorophenoxy)pyridin-2-yl)amino)-1-oxopropan-2-yl)piperidin-3-yl)-2-methylpyridine 1-oxide and 4-((S)-4,4-difluoro-1-((S)-1-((5-(4-fluorophenoxy)pyridin-2-yl)amino)-1-oxopropan-2-yl)piperidin-3-yl)-2-methylpyridine 1-oxide], the IC50 fell in the range of 10 to 100 nM.

Consider `C[C@@H](C(=O)Nc1ccc(Oc2ncc(F)cc2F)cn1)[C@H]1CCC(F)(F)[C@@H](c2cc[n+]([O-])cc2)C1` [Example 293, 4-((1R,5S)-5-((R)-1-((5-((3,5-difluoropyridin-2-yl)oxy)pyridin-2-yl)amino)-1-oxopropan-2-yl)-2,2-difluorocyclohexyl)pyridine 1-oxide], for which the concentration for half-maximal inhibition (IC50) is ≤ 10 nM.

`C[C@@H](C(=O)Nc1ccc(Oc2ncccc2F)cn1)N1CCC(F)(F)[C@@H](c2cc[n+]([O-])cc2)C1` [Example 125, 4-((S)-4,4-difluoro-1-((S)-1-((5-((3-fluoropyridin-2-yl)oxy)pyridin-2-yl)amino)-1-oxopropan-2-yl)piperidin-3-yl)pyridine 1-oxide] registered a 50% inhibitory concentration (IC50) of 10 to 100 nM.

Regarding `C[C@@H](C(=O)Nc1ccc(OCc2ncco2)cn1)N1CCC(F)(F)[C@@H](c2ccc(=O)[nH]c2)C1` [Example 38, (S)-2-((S)-4,4-difluoro-3-(6-oxo-1,6-dihydropyridin-3-yl)piperidin-1-yl)-N-(5-(oxazol-2-ylmethoxy)pyridin-2-yl)propanamide], the IC50 fell in the range of 100 to 3160 nM.

In the case of `C[C@@H](C(=O)Nc1ccc(Oc2ccc(F)cc2F)cn1)N1CCC(F)(F)[C@@H](c2ccc(=O)[nH]c2)C1` [Example 4, (S)-2-((S)-4,4-difluoro-3-(6-oxo-1,6-dihydropyridin-3-yl)piperidin-1-yl)-N-(5-(2,4-difluorophenoxy)pyridin-2-yl)propanamide], the IC50 was ≤ 10 nM.

`C[C@@H](C(=O)Nc1ccc(Cl)cn1)N1CCC(F)(F)[C@@H](c2ccc(=O)[nH]n2)C1` [Example 149, (S)-N-(5-chloropyridin-2-yl)-2-((R)-4,4-difluoro-3-(6-oxo-1,6-dihydropyridazin-3-yl)piperidin-1-yl)propanamide] had an IC50 of 100 to 3160 nM.

As to `CC(C)Oc1ccc(NC(=O)C(C)N2CCC(F)(F)[C@@H](c3ccc(=O)[nH]c3)C2)nc1` (stereo partly drawn) [Example 26, 2-((S)-4,4-difluoro-3-(6-oxo-1,6-dihydropyridin-3-yl)piperidin-1-yl)-N-(5-isopropoxy-pyridin-2-yl)propanamide], the IC50 lay within 100 to 3160 nM.

As for `CC(C)c1ccc(NC(=O)C(C)N2CCC(F)(F)[C@@H](c3ccc(=O)[nH]c3)C2)nc1` (stereo partly drawn) [Example 82, 2-((S)-4,4-difluoro-3-(6-oxo-1,6-dihydropyridin-3-yl)piperidin-1-yl)-N-(5-isopropylpyridin-2-yl)propanamide], the half-maximal inhibitory concentration (IC50) lay in the range of 100 to 3160 nM.

`CC(C(=O)Nc1ccc(Oc2ccc(F)cc2)cn1)N1CCC(F)(F)C(c2ccc(=O)n(CCS(C)(=O)=O)c2)C1` (stereo not shown) [Example 192, 2-(4,4-difluoro-3-(1-(2-(methylsulfonyl)ethyl)-6-oxo-1,6-dihydropyridin-3-yl)piperidin-1-yl)-N-(5-(4-fluorophenoxy)pyridin-2-yl)propanamide] had an IC50 of 10 to 100 nM.

With `CC(C(=O)Nc1ccc(Oc2ccc(F)cc2F)cn1)N1CCC(F)(F)C(c2ccnc(CN)c2)C1` (mixture of isomers) [Example 264, 2-(3-(2-(aminomethyl)pyridin-4-yl)-4,4-difluoropiperidin-1-yl)-N-(5-(2,4-difluorophenoxy)pyridin-2-yl)propanamide], the half-maximal inhibitory concentration (IC50) was ≤ 10 nM.

The molecule `C[C@@H](C(=O)Nc1ccc(OC2CCCC2)nn1)N1CCC(F)(F)[C@@H](c2ccc(=O)[nH]c2)C1` [Example 101, (S)-N-(6-(cyclopentyloxy)pyridazin-3-yl)-2-((S)-4,4-difluoro-3-(6-oxo-1,6-dihydropyridin-3-yl)piperidin-1-yl)propanamide] registered an IC50 of 10 to 100 nM.

Regarding `C[C@@H](C(=O)Nc1ccc(Oc2ccc(F)cn2)cn1)N1CCC(F)(F)[C@@H](c2cc[n+]([O-])cc2)C1` [Example 115], the concentration for half-maximal inhibition (IC50) lay in the range of 10 to 100 nM.

Take `C[C@@H](C(=O)Nc1ccc(OCC2CC2)nn1)N1CCC(F)(F)C(c2ccncc2)C1` (stereo partly drawn) [Example 224, (2S)—N-(6-(cyclopropylmethoxy)pyridazin-3-yl)-2-(4,4-difluoro-3-(pyridin-4-yl)piperidin-1-yl)propanamide]: the 50% inhibitory concentration (IC50) fell in the range of 100 to 3160 nM.

In turn, `C[C@@H](C(=O)Nc1ccc(OCC2CC2)cn1)N1CCC(F)(F)[C@@H](c2cc[n+]([O-])cc2)C1` [Example 111, 4-((S)-1-((S)-1-((5-(cyclopropylmethoxy)pyridin-2-yl)amino)-1-oxopropan-2-yl)-4,4-difluoropiperidin-3-yl)pyridine 1-oxide] returned a half-maximal inhibitory concentration (IC50) of 10 to 100 nM.

`C[C@@H](C(=O)Nc1ccc(Oc2ccc(F)cc2F)cn1)N1CCC(F)(F)[C@@H](c2c[nH]c(=O)c(CN)c2)C1` [Example 205, (S)-2-((S)-3-(5-(aminomethyl)-6-oxo-1,6-dihydropyridin-3-yl)-4,4-difluoropiperidin-1-yl)-N-(5-(2,4-difluorophenoxy)pyridin-2-yl)propanamide]: the half-maximal inhibitory concentration (IC50) is ≤ 10 nM.

Molecule `C[C@@H](C(=O)Nc1ccc(F)cn1)N1CCC(F)(F)C(c2cc(CO)c(=O)n(CC(F)(F)F)c2)C1` (stereo partly drawn) [Example 199, (2S)-2-(4,4-difluoro-3-(5-(hydroxymethyl)-6-oxo-1-(2,2,2-trifluoroethyl)-1,6-dihydropyridin-3-yl)piperidin-1-yl)-N-(5-fluoropyridin-2-yl)propanamide] gave an IC50 of 100 to 3160 nM.

Regarding `CC(C(=O)Nc1ccc(-c2ccon2)cn1)N1CCC(F)(F)[C@@H](c2ccc(=O)[nH]c2)C1` (stereo partly drawn) [Example 56, 2-((S)-4,4-difluoro-3-(6-oxo-1,6-dihydropyridin-3-yl)piperidin-1-yl)-N-(5-(isoxazol-3-yl)pyridin-2-yl)propanamide], the IC50 is 3160 to 31600 nM.

In turn, `C[C@@H](C(=O)Nc1ccc(Cl)cn1)N1CCC[C@@H](c2c[nH]c(=O)c(N)n2)C1` (single isomer, unassigned) [Example 174] registered a half-maximal inhibitory concentration (IC50) of 100 to 3160 nM.

Turning to `CC(=O)NCc1cc(C2CN(C(C)C(=O)Nc3ccc(Oc4ccc(F)cc4F)cn3)CCC2(F)F)cc[n+]1[O-]` (mixture of isomers) [Example 262, 2-(acetamidomethyl)-4-(1-(1-((5-(2,4-difluorophenoxy)pyridin-2-yl)amino)-1-oxopropan-2-yl)-4,4-difluoropiperidin-3-yl)pyridine 1-oxide], the half-maximal inhibitory concentration (IC50) was ≤ 10 nM.

Molecule `C[C@@H](C(=O)Nc1ccc(Oc2ccccn2)cn1)N1CCC(F)(F)[C@@H](c2ccc(=O)[nH]c2)C1` [Example 61, (S)-2-((S)-4,4-difluoro-3-(6-oxo-1,6-dihydropyridin-3-yl)piperidin-1-yl)-N-(5-(pyridin-2-yloxy)pyridin-2-yl)propanamide] came in with an IC50 of 10 to 100 nM.

Molecule `Cc1cc(C2CN([C@@H](C)C(=O)Nc3ccc(F)cn3)CCC2(F)F)cc[n+]1[O-]` (stereo partly drawn) [Example 217, 4-(4,4-difluoro-1l-((S)-1-((5-fluoropyridin-2-yl)amino)-1-oxopropan-2-yl)piperidin-3-yl)-2-methylpyridine 1-oxide] came in with a half-maximal inhibitory concentration (IC50) of 100 to 3160 nM.

Turning to `C[C@@H](C(=O)Nc1ccc(Oc2ccc(F)cn2)cn1)[C@H]1CCC(F)(F)[C@@H](c2ccc(=O)[nH]c2)C1` [Example 279, (R)-2-((1S,3R)-4,4-difluoro-3-(6-oxo-1,6-dihydropyridin-3-yl)cyclohexyl)-N-(5-((5-fluoropyridin-2-yl)oxy)pyridin-2-yl)propanamide], the IC50 is ≤ 10 nM.

As to `C[C@@H](C(=O)Nc1ccc(Oc2ncc(F)cc2F)cn1)[C@H]1CCC(F)(F)[C@@H](c2ccc(=O)[nH]c2)C1` [Example 281, (R)-2-((1S,3R)-4,4-difluoro-3-(6-oxo-1,6-dihydropyridin-3-yl)cyclohexyl)-N-(5-((3,5-difluoropyridin-2-yl)oxy)pyridin-2-yl)propanamide], the IC50 was ≤ 10 nM.

`C[C@@H](C(=O)Nc1ccc(F)cn1)N1CCC(F)(F)[C@@H](c2c[nH]c(=O)c(N)n2)C1` [Example 106, (S)-2-((R)-3-(6-amino-5-oxo-4,5-dihydropyrazin-2-yl)-4,4-difluoropiperidin-l-y1)-N-(5-fluoropyridin-2-yl) propanamide]: the 50% inhibitory concentration (IC50) was in the range of 10 to 100 nM.

In turn, `CC(C)(C(=O)Nc1ccc(OCC2CC2)cn1)N1CCC(F)(F)[C@@H](c2ccc(=O)[nH]c2)C1` (single isomer, unassigned) [Example 183] gave an IC50 of 100 to 3160 nM.

For `C[C@@H](C(=O)Nc1ccc(F)cn1)N1CCC(F)(F)[C@@H](c2c[nH]c(=O)c(CO)c2)C1` [Example 153, (S)-2-((S)-4,4-difluoro-3-(5-(hydroxymethyl)-6-oxo-1,6-dihydropyridin-3-yl)piperidin-1-yl)-N-(5-fluoropyridin-2-yl)propanamide], the concentration for half-maximal inhibition (IC50) was 100 to 3160 nM.

As to `C[C@@H](C(=O)Nc1ccc(OCc2ccccc2)cn1)N1CCC(F)(F)[C@@H](c2ccc(=O)[nH]c2)C1` [Example 22, (S)-N-(5-(benzyloxy)pyridin-2-yl)-2-((S)-4,4-difluoro-3-(6-oxo-1,6-dihydropyridin-3-yl)piperidin-1-yl)propanamide], the IC50 fell in the range of 100 to 3160 nM.

As for `C[C@@H](C(=O)Nc1ccc(Oc2ccc(F)cc2F)cn1)N1CCC(F)(F)C(c2cc(C(O)C(F)(F)F)c[n+]([O-])c2)C1` (mixture of isomers) [Example 266, 3-(1-(1-((5-(2,4-difluorophenoxy)pyridin-2-yl)amino)-1-oxopropan-2-yl)-4,4-difluoropiperidin-3-yl)-5-(2,2,2-trifluoro-1-hydroxyethyl)pyridine 1-oxide], the IC50 was in the range of 10 to 100 nM.
